Experimental data published in patent US6936585B2, “Corticotropin releasing factor 2 receptor agonists” (priority 2002, dated 2005).
Peptide text beside a SMILES is read from it.

Target: T1, CRF1R (Homo sapiens, UniProt P34998)
T1 sequence (P34998 24-415): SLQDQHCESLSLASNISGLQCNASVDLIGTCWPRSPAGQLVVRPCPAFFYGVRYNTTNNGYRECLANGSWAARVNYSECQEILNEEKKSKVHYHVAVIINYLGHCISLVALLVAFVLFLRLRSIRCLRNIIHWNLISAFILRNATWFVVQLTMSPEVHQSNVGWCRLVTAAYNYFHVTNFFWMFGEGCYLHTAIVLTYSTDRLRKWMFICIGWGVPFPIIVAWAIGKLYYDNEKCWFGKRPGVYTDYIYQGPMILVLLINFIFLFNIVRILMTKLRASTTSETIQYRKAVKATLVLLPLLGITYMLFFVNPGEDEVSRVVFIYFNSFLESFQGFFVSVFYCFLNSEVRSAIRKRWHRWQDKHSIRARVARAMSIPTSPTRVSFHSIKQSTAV
Assay: CRF1R agonist activation (EC50 / Emax), called comparative CRF binding
Assay type: cell-based
Conditions: for EC50: read-out: CRF1R EC50
From the text: The pharmacological activity and selectivity of the peptides of present invention can be determined using published test procedures. See, e.g, U.S. patent application Ser. No. 09/799,978 (now issued U.S. Pat. No. 6,670,140). Because CRF2R and CRF1R are homologous proteins, it is expected that a certain proportion of agonists for CRF2R will also function as agonists of CRF1R. As discussed above, activation of CRF1R induces activation of the HPA axis since increased corticosteroid production leads to skeletal muscle atrophy. In most cases in which an increase in muscle mass or function is desired, it is not desirable to activate the HPA axis.
Cell-based assays include the steps of contacting cells which express CRF1R or CRF2R with a peptide of the present invention or control and measuring activation of the CRFR by measuring the expression or activity of components of the CRFR signal transduction pathways.
For example, after contact with a peptide of the present invention, lysates of the cells can be prepared and assayed for induction of cAMP. cAMP is induced in response to Gαs activation. Because Gαs is activated by receptors other than CRFR and because a test peptide may be exerting its effect through CRFRs or by another mechanism, two control comparisons are relevant for determining whether the peptide increases levels of cAMP via activation of a CRFR. One control compares the cAMP level of cells contacted with the peptide and the cAMP level of cells contacted with a control compound (i.e., the vehicle in which the peptide is dissolved).
In one example, cAMP induction is measured with the use of DNA constructs containing the cAMP responsive element linked to any of a variety of reporter genes can be introduced into cells expressing CRFRs. Such reporter genes include, but are not limited to, chloramphenicol acetyltransferase (CAT), luciferase, glucuronide synthetase, growth hormone, fluorescent proteins (e.g., Green Fluorescent Protein), or alkaline phosphatase. Following exposure of the cells to the peptide, the level of reporter gene expression can be quantitated to determine the peptide's ability to increase cAMP levels and thus determine the peptide's ability to activate the CRFR.
In addition to using cells expressing full length CRFRs, cells can be engineered which express CRFRs containing the ligand binding domain of the receptor coupled to, or physically modified to contain, reporter elements or to interact with signaling proteins. For example, a wild type CRFR or CRFR fragment can be fused to a G-protein resulting in activation of the fused G-protein upon agonist binding to the CRFR portion of the fusion protein. […] In addition, alternative pathways for induction of the CRE reporter could be eliminated to reduce basal levels.

Row | Compound | Emax (read-out: CRF1R Emax) | EC50
1 | CC[C@H](C)[C@H](N)C(=O)N[C@H](C(=O)N[C@@H](CC(C)C)C(=O)N[C@@H](CO)C(=O)N[C@@H](CC(C)C)C(=O)N[C@@H](CC(=O)O)C(=O)N[C@H](C(=O)N1CCC[C@H]1C(=O)N[C@H](C(=O)NCC(=O)N[C@@H](CC(C)C)C(=O)N[C@@H](CC(C)C)C(=O)N[C@@H](CCC(N)=O)C(=O)N[C@H](C(=O)N[C@@H](CC(C)C)C(=O)N[C@@H](CC(C)C)C(=O)N[C@@H](CCC(=O)O)C(=O)N[C@@H](CCC(N)=O)C(=O)N[C@@H](C)C(=O)N[C@@H](CCCNC(=N)N)C(=O)N[C@@H](C)C(=O)N[C@@H](CCCNC(=N)N)C(=O)N[C@@H](C)C(=O)N[C@@H](C)C(=O)N[C@@H](CCCNC(=N)N)C(=O)N[C@@H](CCC(=O)O)C(=O)N[C@@H](CCC(N)=O)C(=O)N[C@@H](C)C(=O)N[C@H](C(=O)N[C@H](C(=O)N[C@@H](CC(N)=O)C(=O)N[C@@H](C)C(=O)N[C@@H](CCCNC(=N)N)C(=O)N[C@H](C(=O)N[C@@H](CC(C)C)C(=O)N[C@@H](C)C(=O)N[C@@H](CCCNC(=N)N)C(=O)N[C@H](C(=O)N[C@@H](CCSC)C(N)=O)C(C)C)[C@@H](C)CC)[C@@H](C)O)[C@@H](C)O)[C@@H](C)CC)[C@@H](C)CC)C(C)C)C(C)C [compound 356] (H-IVLSLDVPIGLLQILLEQARARAAREQATTNARILARVM-NH2) | 9% | –
2 | CC[C@H](C)[C@H](N)C(=O)N[C@H](C(=O)N[C@@H](CC(C)C)C(=O)N[C@@H](CO)C(=O)N[C@@H](CC(C)C)C(=O)N[C@@H](CC(=O)O)C(=O)N[C@H](C(=O)N1CCC[C@H]1C(=O)N[C@H](C(=O)NCC(=O)N[C@@H](CC(C)C)C(=O)N[C@@H](CC(C)C)C(=O)N[C@@H](CCC(N)=O)C(=O)N[C@H](C(=O)N[C@@H](CC(C)C)C(=O)N[C@@H](CC(C)C)C(=O)N[C@@H](CCC(=O)O)C(=O)N[C@@H](CCC(N)=O)C(=O)N[C@@H](C)C(=O)N[C@@H](CCCCN)C(=O)N[C@@H](C)C(=O)N[C@@H](CCCNC(=N)N)C(=O)N[C@@H](C)C(=O)N[C@@H](C)C(=O)N[C@@H](CCCNC(=N)N)C(=O)N[C@@H](CCC(=O)O)C(=O)N[C@@H](CCC(N)=O)C(=O)N[C@@H](C)C(=O)N[C@H](C(=O)N[C@H](C(=O)N[C@@H](CC(N)=O)C(=O)N[C@@H](C)C(=O)N[C@@H](CCCNC(=N)N)C(=O)N[C@H](C(=O)N[C@@H](CC(C)C)C(=O)N[C@@H](C)C(=O)N[C@@H](CCCNC(=N)N)C(=O)N[C@H](C(N)=O)C(C)C)[C@@H](C)CC)[C@@H](C)O)[C@@H](C)O)[C@@H](C)CC)[C@@H](C)CC)C(C)C)C(C)C [compound 127] (H-IVLSLDVPIGLLQILLEQAKARAAREQATTNARILARV-NH2; N-terminus assumed) | – | > 100 nM
3 | CC[C@H](C)[C@H](N)C(=O)N[C@H](C(=O)N[C@@H](CC(C)C)C(=O)N[C@@H](CO)C(=O)N[C@@H](CC(C)C)C(=O)N[C@@H](CC(=O)O)C(=O)N[C@H](C(=O)N1CCC[C@H]1C(=O)N[C@H](C(=O)NCC(=O)N[C@@H](CC(C)C)C(=O)N[C@@H](CC(C)C)C(=O)N[C@@H](CCC(N)=O)C(=O)N[C@H](C(=O)N[C@@H](CC(C)C)C(=O)N[C@@H](CC(C)C)C(=O)N[C@@H](CCC(=O)O)C(=O)N[C@@H](CCC(N)=O)C(=O)N[C@H](C(=O)N[C@@H](CCCCN)C(=O)N[C@@H](C)C(=O)N[C@@H](CCCNC(=N)N)C(=O)N[C@@H](C)C(=O)N[C@@H](C)C(=O)N[C@@H](CCCNC(=N)N)C(=O)N[C@@H](CCC(=O)O)C(=O)N[C@@H](CCC(N)=O)C(=O)N[C@@H](C)C(=O)N[C@H](C(=O)N[C@H](C(=O)N[C@@H](CC(N)=O)C(=O)N[C@@H](C)C(=O)N[C@@H](CCCNC(=N)N)C(=O)N[C@H](C(=O)N[C@@H](CC(C)C)C(=O)N[C@@H](C)C(=O)N[C@@H](CCCNC(=N)N)C(=O)N[C@H](C(N)=O)C(C)C)[C@@H](C)CC)[C@@H](C)O)[C@@H](C)O)[C@@H](C)O)[C@@H](C)CC)[C@@H](C)CC)C(C)C)C(C)C [compound 129] (H-IVLSLDVPIGLLQILLEQTKARAAREQATTNARILARV-NH2; N-terminus assumed) | – | > 100 nM
